The text below walks through data of ChEMBL document CHEMBL4321852, “Structure-Based and Property-Driven Optimization of N-Aryl Imidazoles toward Potent and Selective Oral RORγt Inhibitors” (J Med Chem, 2019).

Molecules are shown by their SMILES.

The target of data set [1] is T1, Nuclear receptor ROR-gamma (Homo sapiens, UniProt P51449).
T1 sequence (P51449 whole entry): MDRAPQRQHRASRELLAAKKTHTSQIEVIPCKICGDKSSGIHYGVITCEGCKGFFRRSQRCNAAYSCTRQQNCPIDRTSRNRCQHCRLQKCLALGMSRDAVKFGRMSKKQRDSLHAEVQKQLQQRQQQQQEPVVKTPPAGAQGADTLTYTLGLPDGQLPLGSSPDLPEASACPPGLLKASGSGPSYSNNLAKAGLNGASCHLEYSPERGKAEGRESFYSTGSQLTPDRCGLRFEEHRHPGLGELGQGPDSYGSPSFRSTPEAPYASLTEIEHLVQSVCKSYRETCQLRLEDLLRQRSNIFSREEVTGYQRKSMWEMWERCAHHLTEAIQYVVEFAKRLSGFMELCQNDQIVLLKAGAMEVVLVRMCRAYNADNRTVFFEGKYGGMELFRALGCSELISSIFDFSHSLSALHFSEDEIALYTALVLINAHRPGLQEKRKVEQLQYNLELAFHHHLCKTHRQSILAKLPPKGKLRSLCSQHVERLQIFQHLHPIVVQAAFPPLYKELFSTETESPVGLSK
Put plainly: Displacement of RIP140 cofactor peptide from human His6-tagged RORgammat LBD (264 to 518 residues) by TR-FRET assay. A general note: Time-resolved FRET reads energy transfer from a long-lived donor to a nearby acceptor.

A short description of data set [2]: Inverse agonist activity at RORgammat in rat whole blood assessed as reduction in Con A/IL-23-stimulated IL-17 secretion after 72 hrs by ELISA.
Data set [3] can be described thus: Clearance in Sprague-Dawley rat at 1 mg/kg, iv. Particulars: in vivo. In kind it is ADME, organism-based.
Data set [4] can be described thus: Terminal half life in Sprague-Dawley rat at 1 mg/kg, iv. In kind it is ADME, organism-based. Particulars: in vivo, read-out: beta t1/2 (converted).
Data set [5] in a line: Dose normalized AUC in Sprague-Dawley rat at 1 mg/kg, iv. Particulars: in vivo. It counts as ADME, organism-based.
Data set [6] in a line: Dose normalized Cmax in DA rat at 5 mg/kg, po. It counts as ADME, organism-based. As to conditions: in vivo.
Data set [7] concerns the target T2, Estrogen receptor (Homo sapiens, UniProt P03372).
T2 sequence (P03372 whole entry): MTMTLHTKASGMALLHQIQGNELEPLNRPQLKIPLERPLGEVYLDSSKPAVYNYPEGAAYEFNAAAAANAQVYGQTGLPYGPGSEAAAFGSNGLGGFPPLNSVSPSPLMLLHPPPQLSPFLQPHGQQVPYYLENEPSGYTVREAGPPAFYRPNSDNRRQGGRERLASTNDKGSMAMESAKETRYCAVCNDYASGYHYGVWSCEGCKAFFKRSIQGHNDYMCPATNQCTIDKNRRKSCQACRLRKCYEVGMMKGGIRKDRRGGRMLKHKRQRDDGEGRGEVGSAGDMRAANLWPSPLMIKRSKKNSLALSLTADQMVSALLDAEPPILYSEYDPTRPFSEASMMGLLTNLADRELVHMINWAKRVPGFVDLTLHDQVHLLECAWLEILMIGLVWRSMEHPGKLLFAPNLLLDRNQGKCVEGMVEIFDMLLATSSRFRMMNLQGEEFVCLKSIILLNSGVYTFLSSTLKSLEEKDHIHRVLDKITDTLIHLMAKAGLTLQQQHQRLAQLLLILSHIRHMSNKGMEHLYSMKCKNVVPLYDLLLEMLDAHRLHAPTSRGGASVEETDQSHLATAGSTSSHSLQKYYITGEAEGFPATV
Put plainly: Inhibition of Gal4-tagged ERalpha LBD (unknown origin) by cell based luciferase reporter gene assay. In general terms: A reporter such as luciferase makes a cellular process visible.

Data set [8] addresses T3, Progesterone receptor (Homo sapiens, UniProt P06401).
T3 sequence (P06401 whole entry): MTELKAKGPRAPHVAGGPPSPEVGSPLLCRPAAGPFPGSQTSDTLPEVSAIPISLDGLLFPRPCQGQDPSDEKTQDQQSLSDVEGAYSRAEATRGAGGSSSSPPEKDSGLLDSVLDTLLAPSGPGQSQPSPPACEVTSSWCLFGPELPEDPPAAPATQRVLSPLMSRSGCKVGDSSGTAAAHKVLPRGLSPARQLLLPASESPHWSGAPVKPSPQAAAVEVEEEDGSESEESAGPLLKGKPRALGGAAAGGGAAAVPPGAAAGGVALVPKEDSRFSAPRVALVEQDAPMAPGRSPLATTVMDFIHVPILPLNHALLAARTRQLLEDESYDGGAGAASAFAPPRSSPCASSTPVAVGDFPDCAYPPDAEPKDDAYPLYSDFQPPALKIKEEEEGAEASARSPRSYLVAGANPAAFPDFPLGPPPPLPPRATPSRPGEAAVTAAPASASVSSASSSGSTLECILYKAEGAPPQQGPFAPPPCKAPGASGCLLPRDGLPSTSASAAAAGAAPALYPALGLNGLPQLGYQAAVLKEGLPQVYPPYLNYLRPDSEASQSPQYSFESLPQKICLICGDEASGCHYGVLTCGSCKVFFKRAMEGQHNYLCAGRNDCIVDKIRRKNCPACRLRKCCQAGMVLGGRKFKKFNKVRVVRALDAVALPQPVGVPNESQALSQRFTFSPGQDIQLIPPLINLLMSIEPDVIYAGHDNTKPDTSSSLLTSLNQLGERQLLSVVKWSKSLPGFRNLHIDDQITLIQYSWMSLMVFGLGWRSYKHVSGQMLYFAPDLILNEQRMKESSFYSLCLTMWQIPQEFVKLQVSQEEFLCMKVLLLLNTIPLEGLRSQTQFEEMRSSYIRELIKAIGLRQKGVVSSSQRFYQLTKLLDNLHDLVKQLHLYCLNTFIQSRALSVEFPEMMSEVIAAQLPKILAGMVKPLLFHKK
Put plainly: Inhibition of Gal4-tagged PR LBD (unknown origin) by cell based luciferase reporter gene assay.

For data set [9], the target named is T4, Vitamin D3 receptor (Homo sapiens, UniProt P11473).
T4 sequence (P11473 whole entry): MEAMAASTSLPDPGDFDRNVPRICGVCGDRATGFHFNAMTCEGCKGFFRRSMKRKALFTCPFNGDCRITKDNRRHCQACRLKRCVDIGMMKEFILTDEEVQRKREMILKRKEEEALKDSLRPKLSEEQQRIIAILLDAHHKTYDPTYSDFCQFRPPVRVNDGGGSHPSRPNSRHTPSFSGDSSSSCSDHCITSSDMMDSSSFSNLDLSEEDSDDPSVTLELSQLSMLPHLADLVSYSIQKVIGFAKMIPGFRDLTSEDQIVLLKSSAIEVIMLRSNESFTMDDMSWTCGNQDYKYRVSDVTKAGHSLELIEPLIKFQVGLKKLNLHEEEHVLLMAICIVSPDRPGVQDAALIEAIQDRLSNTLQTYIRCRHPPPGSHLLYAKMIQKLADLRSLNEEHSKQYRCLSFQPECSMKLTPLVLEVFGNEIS
Briefly: Inhibition of Gal4-tagged VDR LBD (unknown origin) by cell based luciferase reporter gene assay.

Data set [10] deals with T1, Nuclear receptor ROR-gamma. Put plainly: Inhibition of human GAL4-DBD fused RORgammat LBD expressed in human Jurkat cells assessed as inhibition of receptor transactivation after 24 hrs by luciferase reporter gene assay. In kind it is cell-based.

Turning to `Cc1c(C2(C(F)(F)F)CC2)nc(C2CC2)n1-c1c(Cl)ccc(N2CC3(CC(C(=O)O)C3)C2)c1Cl` (single isomer, unassigned; atropisomer), the half-inhibitory concentration (IC50) is 0.005 µM in data set [1]; 0.702 µM in data set [2]; > 10 µM in [7]; > 10 µM in data set [8]; > 10 µM in [9]; 0.151 µM in data set [10]. In [3], this compound came in with a clearance of 0.162 L/h/kg. In addition, the half-life in data set [4] was 5.3 h. The AUC/dose in [5] was 12680 nM·h. Also, in [6], the Cmax/dose is 2.448 µM.

In general, IC50 refers to the concentration that gives 50% inhibition. A word on the clearance: it is a measure of how efficiently the substance is removed, as volume per time. Lower therefore signals inefficient removal.
